Test results reported in patent US6733986B1, “Method and agent for determining a deaminase enzymatic activity” (Bio Merieux, priority 1997, dated 2004).

How the values were obtained:
[1] = test system: strains which belong to the group Proteus; test: Example of a gelled medium with O-toluene-sulfonyl-L-tyrosine and iron citrate; type: cell-based; settings: 0.5 g/l with iron citrate at 0.5 g/l in gelled medium; after 18 to 24 hours of incubation
Description: As an example of a gelled medium, O-toluene-sulfonyl-L-tyrosine at 0.5 g/l and iron citrate at 0.5 g/l can be incorporated into the culture medium, in the following medium:
this medium being able to be inoculated with various Gram-negative or Gram-positive microorganisms.

[2] = test system: bacteria belonging to the group Proteus; test: Differentiation of the group Proteus from other bacteria in liquid medium (Example 7); type: cell-based; settings: after 48 hours
Procedure: Two media were prepared according to the usual techniques. […] The composition of the Media III and IV for one liter of final medium is as follows: [table] The pH of the media was adjusted to approximately 7.2. In Medium III, the detection agent for the enzymatic activity such as deaminase activity which was used is the natural amino acid L-histidine, at 1.5 g/l; in Medium IV, the detection agent for the enzymatic activity such as deaminase activity which is used is of [sic] N-toluene-sulfonyl-L-histidine, at 0.5 g/l. The media were distributed into test tubes, in a sterile manner. These two media were inoculated with the 12 bacterial strains described in Example 6. The tubes were incubated for 48 hours at 37° C., and were examined visually after 48 hours according to the following interpretation: the browning of the tube reflects the presence of an enzymatic activity such as deaminase activity, and thus of a bacterium of the group Proteus, the absence of browning signifies the absence of bacteria of the group Proteus.

Structure (SMILES) | colour of colonies of strains of the group Proteus [1] | differentiation of bacteria of the group Proteus from those not belonging thereto [2]
Cc1ccc(S(=O)(=O)Oc2ccc(C[C@H](N)C(=O)O)cc2)cc1 [Example 2, 4-O-tosyl-L-tyrosine] | brown colonies | 
N[C@@H](Cc1c[nH]cn1)C(=O)O [L-histidine] |  | high sensitivity and specificity
